In ChEMBL document CHEMBL1128212, “Synthesis and biological evaluation of substituted flavones as gastroprotective agents” (1995):

Experiments:
Rattus norvegicus [1] = assay: Percent protection from gastric damage in rats relative to vehicle control following intraperitoneal administration of 20 mg/Kg; assay type: functional, Stomach
Rattus norvegicus [2] = species on record: Rattus norvegicus; assay: The dose required to produce a 50% gastroprotection level relative to control; assay type: functional
Rattus norvegicus [3] = assay: Gastroprotection percentage taken from rat indomethacin damage model at a dose 0.25 mg/kg administered orally; assay type: functional; conditions: route oral
Rattus norvegicus [4] = assay: Compound was evaluated for its effect on rat liver microsomal cytochrome b5 by the change in its concentration at a dose of 250 mg/kg; assay type: functional, organism-based; design: dose 250 mg/kg
Rattus norvegicus [5] = assay: Compound was evaluated for its effect on rat liver microsomal cytochrome P450 by the change in its concentration at a dose of 250 mg/kg; assay type: functional, organism-based; design: dose 250 mg/kg
Rattus norvegicus [6] = assay: Compound was evaluated for its effect on rat liver microsomal NADPH-[…] c reductase by the change in its concentration at a dose of 250 mg/kg; assay type: functional, organism-based; design: dose 250 mg/kg
Rattus norvegicus [7] = assay: Compound was evaluated for its effect on rat liver microsomal EROD(7-ethoxyresorufin O-dealkylase) by the change in its concentration at a dose of 250 mg/kg; assay type: functional, organism-based; design: dose 250 mg/kg
Rattus norvegicus [8] = assay: Gastroprotection percentage taken from rat indomethacin damage model at a dose 30 mg/kg administered orally; assay type: functional; conditions: route oral
Rattus norvegicus [9] = assay: Compound was evaluated for its effect on rat liver microsomal cytochrome P450 by the change in its concentration at a dose of 268 mg/kg; assay type: functional, organism-based; design: dose 268 mg/kg
Rattus norvegicus [10] = assay: Compound was evaluated for its effect on rat liver microsomal cytochrome b5 by the change in its concentration at a dose of 268 mg/kg; assay type: functional, organism-based; design: dose 268 mg/kg
Rattus norvegicus [11] = assay: Compound was evaluated for its effect on rat liver microsomal EROD(7-ethoxyresorufin O-dealkylase) by the change in its concentration at a dose of 268 mg/kg; assay type: functional, organism-based; design: dose 268 mg/kg
Rattus norvegicus [12] = assay: Compound was evaluated for its effect on rat liver microsomal NADPH-[…] c reductase by the change in its concentration at a dose of 268 mg/kg; assay type: functional, organism-based; design: dose 268 mg/kg
Rattus norvegicus [13] = assay: Compound was evaluated for its effect on rat liver microsomal NADPH-[…] c reductase by the change in its concentration at a dose of 100 mg/kg; assay type: functional, organism-based; design: dose 100 mg/kg
Rattus norvegicus [14] = assay: Compound was evaluated for its effect on rat liver microsomal EROD(7-ethoxyresorufin O-dealkylase) by the change in its concentration at a dose of 100 mg/kg; assay type: functional, organism-based; design: dose 100 mg/kg
Rattus norvegicus [15] = assay: Compound was evaluated for its effect on rat liver microsomal cytochrome b5 by the change in its concentration at a dose of 100 mg/kg; assay type: functional, organism-based; design: dose 100 mg/kg
Rattus norvegicus [16] = assay: Compound was evaluated for its effect on rat liver microsomal cytochrome P450 by the change in its concentration at a dose of 100 mg/kg; assay type: functional, organism-based; design: dose 100 mg/kg

SMILES	Protection (Rattus norvegicus [1]) [%]	other results
O=c1cc(-c2ccccc2)oc2c(O)cccc12	46	
CCOc1cccc2oc(-c3ccccc3)cc(=O)c12	36	
O=c1cc(-c2ccccc2)oc2ccc(O)cc12 [6-HYDROXYFLAVONE]	57	
COc1cccc2oc(-c3ccc(Cl)cc3)cc(=O)c12	94	
COc1cccc2oc(-c3ccccc3)cc(=O)c12	97	ED50 (Rattus norvegicus [2]): 2.6 mg/kg
O=c1cc(-c2ccccc2)oc2ccccc12 [FLAVONE]	93	ED50 (Rattus norvegicus [2]): 6.9 mg/kg
COc1ccc2c(=O)cc(-c3ccccc3Cl)oc2c1	80	
CCCCC[C@H](O)/C=C/[C@H]1[C@H](O)CC(=O)[C@@H]1C/C=C\CCCC(=O)O [DINOPROSTONE]	82	Protection (Rattus norvegicus [3]): 61%
Cc1ccc(-c2cc(=O)c3ccccc3o2)cc1	68	
O=c1cc(-c2ccccc2O)oc2ccccc12	78	ED50 (Rattus norvegicus [2]): 15.6 mg/kg
COc1ccc(-c2cc(=O)c3ccccc3o2)cc1 [4'-METHOXYFLAVONE]	21	
COc1ccccc1-c1cc(=O)c2ccccc2o1	66	ED50 (Rattus norvegicus [2]): 22.4 mg/kg
COc1ccc2oc(-c3ccccc3)cc(=O)c2c1 [6-METHOXYFLAVONE]	29	
COc1cccc(-c2cc(=O)c3ccccc3o2)c1	48	
COc1cccc2oc(-c3ccc(C(F)(F)F)cc3)cc(=O)c12	65	
C=CCOc1cccc2oc(-c3ccccc3)cc(=O)c12	57	
Cc1ccc2c(=O)cc(-c3ccccc3)oc2c1 [7-METHYLFLAVONE]	90	ED50 (Rattus norvegicus [2]): 5.6 mg/kg
COc1cccc2oc(-c3ccc(C)cc3)cc(=O)c12	93	
COc1cccc2oc(-c3ccccc3Cl)cc(=O)c12	89	
O=c1cc(-c2ccc(O)cc2)oc2ccccc12	63	

SMILES	Protection (Rattus norvegicus [1]) [%]	other results
COc1c(-c2ccccc2)oc2ccccc2c1=O	41	
COc1ccc2c(=O)cc(-c3ccccc3)oc2c1 [7-METHOXYFLAVONE]	89	Concentration (nM min-1 (mg of protein)-1) (Rattus norvegicus [4]): 0.73; Concentration (nM min-1 (mg of protein)-1) (Rattus norvegicus [5]): 1.42; Concentration (nM min-1 (mg of protein)-1) (Rattus norvegicus [6]): 339; Concentration (nM min-1 (mg of protein)-1) (Rattus norvegicus [7]): 442; ED50 (Rattus norvegicus [2]): 5.9 mg/kg
COc1cccc2oc(-c3ccc([N+](=O)[O-])cc3)cc(=O)c12	52	
CCOc1ccc2c(=O)cc(-c3ccccc3)oc2c1	87	
COc1cccc2oc(-c3ccc(F)cc3)cc(=O)c12	97	Protection (Rattus norvegicus [8]): 76%; Concentration (nM min-1 (mg of protein)-1) (Rattus norvegicus [9]): 1.17; Concentration (nM min-1 (mg of protein)-1) (Rattus norvegicus [10]): 0.65; Concentration (nM min-1 (mg of protein)-1) (Rattus norvegicus [11]): 1110; ED50 (Rattus norvegicus [2]): 5.5 mg/kg; Concentration (nM min-1 (mg of protein)-1) (Rattus norvegicus [12]): 275
COc1ccc2c(=O)cc(-c3cccc(C(F)(F)F)c3)oc2c1	67	
O=c1c(O)c(-c2ccccc2)oc2ccccc12 [FLAVONOL]	47	
O=c1cc(-c2ccccc2)oc2cc(O)ccc12 [7-HYDROXYFLAVONE]	75	
COc1ccc2c(=O)cc(-c3ccc(F)cc3)oc2c1	67	ED50 (Rattus norvegicus [2]): 8.9 mg/kg
Cc1ccccc1-c1cc(=O)c2ccccc2o1	92	
CN/C(=N\CCSCc1nc[nH]c1C)NC#N [CIMETIDINE]	14	
Cc1cccc2oc(-c3ccccc3)cc(=O)c12	52	
O=c1cc(-c2ccccc2)oc2cccc(O)c12 [5-HYDROXYFLAVONE]	58	
CCCCOc1cccc2oc(-c3ccccc3)cc(=O)c12	75	
O=c1cc(-c2cccc(O)c2)oc2ccccc12	71	
O=c1cc(-c2ccccc2)oc2ccc3ccccc3c12		Concentration (nM min-1 (mg of protein)-1) (Rattus norvegicus [13]): 166; Concentration (nM min-1 (mg of protein)-1) (Rattus norvegicus [14]): 5010; Concentration (nM min-1 (mg of protein)-1) (Rattus norvegicus [15]): 0.79; Concentration (nM min-1 (mg of protein)-1) (Rattus norvegicus [16]): 2.02
COc1ccc(-c2cc(=O)c3c(OC)cccc3o2)cc1	33	
COc1cccc2oc(-c3cccc(C(F)(F)F)c3)cc(=O)c12	90	ED50 (Rattus norvegicus [2]): 3.3 mg/kg
COc1cccc2c(=O)cc(-c3ccccc3)oc12 [8-METHOXYFLAVONE]	53	
